Data reported in patent US20170281508A1, “Peptides and Their Use in the Treatment of Skin” (AVON PRODUCTS, INC., priority 2014, published 2017).
Peptide text beside a SMILES is read from it.

System: Human dermal fibroblast cells
Assay: Pro-collagen I production in human dermal fibroblast cells (HTRF human pro-collagen I kit)
Assay type: cell-based
Settings: peptide concentration 0.001% in DMEM media without FBS, 48 h treatment, percent change relative to vehicle control
Procedure: Human dermal fibroblast cells were grown in a 96 well plate in DMEM media (available from Corning, N.Y.) supplemented with 10% Fetal Bovine Serum (FBS) and L-glutamine (0.07×10^5 cells/plate). After reaching about 75% confluence, cells were transferred into DMEM media without FBS and incubated for 4-6 hours. Next, cells were treated with peptide of Formula I at 0.00001%, 0.0001%, 0.001% final concentration in DMEM media without FBS for 48 h. After treatment the media were collected, and cell viability was measured using MTT. The amount of secreted collagen was tested in the media using HTRF human pro-collagen I kit (Cisbio Inc, Bedford, Mass.).
Results are summarized in Table 1 below as percent change of pro-collagen I production relative to vehicle control: […]

With `CCC(C)C(NC(=O)C(N)CCC(N)=O)C(=O)NC(CC(C)C)C(=O)NC(CO)C(=O)NC(CCCCN)C(=O)NC(CC(C)C)C(=O)NC(CCCNC(=N)N)C(=O)NC(CC(C)C)C(=O)O` (stereo not drawn) [QILSKLRL (SEQ ID NO: 1), Gln-Ile-Leu-Ser-Lys-Leu-Arg-Leu] (H-QILSKLRL-OH; configuration not given here) as the compound, how does the “Increase in Pro-Collagen I Production” value read?
The value was “+10-30%”.

What about the “Increase in Pro-Collagen I Production” value (listed as peptide of Formula I) of the same compound?
Its value is 10-30%.
